Test results reported in paper PMC12508576, “Implementing a trilineage differentiation in the ReproTracker assay for improved teratogenicity assessment” (Frontiers in Toxicology, 2025).
Where two headings read alike, the source gives them in different places.

Key:
[1] = read-out: Human therapeutic cmax, Table 1 (R3 I (2021), Schulz et al. (2020) and others); cited from earlier work
[2] = tested on: hiPSCs differentiating into hepatocyte-like cells; conditions: lineage call; footnote b: previously published data; ref Jamalpoor et al., 2022; cited from earlier work
[3] = tested on: hiPSCs differentiating into neural rosette-like cells
Method: (§1) Prior to differentiation, the cells were harvested and dissociated into single cells using Gibco™ TrypLE™ Select (ThermoFisher Scientific; Bleiswijk, Netherlands) for 5 min at 37 °C. Cells were seeded in Matrigel™-coated 24-well plates (ThermoFisher Scientific) in mTeSR™1 containing RevitaCell™ Supplement (ThermoFisher Scientific). […] The cells were cultured in this medium until D3. From D3 until the end of the differentiation protocol (D13) (one-step protocol), cells were cultured in N2B27 medium without ROCK inhibitor or LDN193189. In the case of the replating protocol, cells were replated at D7 and grown in the same medium until day 13. At the end of the differentiation, morphology of the cells was assessed using an Operetta CLS (Revvity) instrument. The expected morphology for each of the lineages, to ensure data acceptance and correct differentiations, is further described in Section 2.9 of the methods section. The trilineage differentiation was replicated in 96-well plates (ThermoFisher Scientific and Revvity Phenoplate) using the same differentiation protocols with an adapted number of cells for the seeding. And termination at D14.
(§2) Cells were harvested, and total RNA was isolated using the Maxwell® RSC simply RNA Cells Kit (cat. no.: #AS1390; Promega) on a Maxwell automated purification instrument (Maxwell RSC 48; Promega). […] Each individual primer was paired with its corresponding fluorophore and quencher and adjusted accordingly depending on gene abundance. Primer and probe sequences are described in Supplementary Table S1.
(§3) Data acceptance was based on the appropriate expression of the assessed biomarker genes in the differentiated populations, at appropriate times during differentiation. Failure to observe the expected temporal expression of key, lineage-specific biomarkers, during the cell fate choices associated with each differentiation protocol, would result in the experiment being invalidated.
(§4) To follow morphological changes throughout the hepatocyte and neural differentiation protocol, brightfield images of the cells were acquired after each medium refresh using an iRiS digital cell imaging microscope (Logos Biosystems) or an Operetta CLS (Revvity) instrument. Images were scored based on visual assessment. Cardiac contractability of cardiomyocytes was evaluated visually using an iRiS digital cell imaging microscope (Logos Biosystems).
(§5) Morphologically, cardiomyocytes are expected to group in fiber-like 3D structures that distribute throughout the entire plate. Aside from morphology, an additional criterion for cardiomyocyte differentiation in each experimental setup is for the contracting mature cardiomyocyte cultures exposed to solvent controls, to reach 75%. […] Neural rosettes are recognized by well-defined cell boundaries and multi-layered cultures. Functional/morphological assessment was completed independently from biomarker data analyses. Morphology scores were confirmed by a second person. Failure to observe the anticipated cell morphology/functionality throughout differentiation would result in invalidation of the experiment. Disruption in the morphology of cardiomyocytes is described as a lack of 3D-fibre-like structures in the cultures as well as a clear lack of contractions. Morphologically aberrant hepatocytes are characterized by a lack of polygonal structures with smaller cytoplasm that in the control cultures and the formation of dark cell-dense structures, commonly indicative of clumps of dead cells with big empty spaces between cell colonies.

[4] = tested on: hiPSCs trilineage differentiation (cardiomyocytes, hepatocytes, neural rosette-like cells); conditions: based on effects on cardiomyocytes and/or hepatocytes only; ref Jamalpoor et al., 2022; cited from earlier work
[5] = tested on: hiPSCs trilineage differentiation (cardiomyocytes, hepatocytes, neural rosette-like cells); test: ReproTracker trilineage differentiation, overall teratogenicity prediction; conditions: for LOAEL compared with respective human therapeutic Cmax: Figure 4; for ReproTracker results LOAEL: lowest tested concentration with significant decrease of at least one biomarker, trilineage assay, 'N.d. up to x' given as > x
From the text: (§6) In ReproTracker, teratogenicity prediction of test compounds is based on a Weight of Evidence (WoE) approach, which considers both the significant decrease in biomarker expression and the morphological/functional changes following exposure to test compounds throughout differentiation assays.
(§7) This threshold, for any given biomarker, is defined as the average minus one time the standard deviation (SD) of the biomarker expression levels in solvent-exposed control cultures throughout the experiment. Reduced expression of the selected biomarkers below the set threshold in a concentration-dependent manner, upon exposure to a minimum of 2 consecutive non-cytotoxic concentrations would be considered significant (noted as +). A decrease in expression below the threshold without a clear dose-response would lead to an equivocal classification (noted as (+)). An increase in expression or a lack of response would be considered negative (noted as -). Disruption of morphology/functionality of the cultures upon compound exposure at the two highest tested concentrations in all biological replicates is considered as a morphological disruption (noted as +). Absence of significant effects results in a negative score (noted as -).
(§8) For each differentiation assay, the expression of two biomarkers and a morphological/functional read-out are considered. In the hepatocyte and cardiomyocyte differentiation, FOXA2 and BMP4 are considered germ-layer-specific biomarkers, while AFP and MYH6 are considered cell-specific biomarkers, respectively. When applying the WoE approach, the cell-specific biomarkers in hepatocyte and cardiomyocyte differentiation are given higher weight compared to the germ-layer specific biomarkers and morphology/functionality. For the neural differentiation, both PAX6 and NESTIN are given equal weight as they are considered cell-specific markers. In this case, both biomarkers are given higher weight than the morphological read-out.
(§9) Every measurement/observation is assigned a score (positive, negative, or equivocal). […] In the ReproTracker assay, a compound is identified as a teratogen if it receives a positive score in at least one of the trilineage differentiation assays (cardiomyocyte, hepatocyte, or neural differentiation). […] If neither biomarker expression levels nor morphology/functionality are affected in any of the differentiation assays, the response is considered negative.

human = conditions: Table 1 (R3 I (2021), Schulz et al. (2020) and others); cited from earlier work
[6] = tested on: hiPSCs differentiating into cardiomyocyte-like cells; test: ReproTracker cardiomyocyte differentiation assay
Method: as §1, §2, §3, §4, §5

[7] = tested on: hiPSCs differentiating into hepatocyte-like cells; test: ReproTracker hepatocyte differentiation assay
Method: as §1, §2, §3, §4, §5

[8] = tested on: hiPSCs differentiating into cardiomyocyte-like cells; conditions: lineage call; footnote b: previously published data; ref Jamalpoor et al., 2022; cited from earlier work
undifferentiated hiPSCs [9] = tested on: undifferentiated hiPSCs; parameters: method as in Jamalpoor et al., 2022; conditions: lowest concentration that induced a maximum of 20% cytotoxicity in hiPSCs; dose-range finding previously published; ref Jamalpoor et al., 2022; cited from earlier work
[10] = tested on: hiPSCs differentiating into neural rosette-like cells; test: Neural rosette differentiation, replating protocol, PAX6/NESTIN immunostaining; format: cell-based, human; conditions: for PAX6 protein levels: D13, non-cytotoxic concentrations; for NESTIN protein levels: D13, tacrolimus: highest tested concentration; for NESTIN localization: D13
Method: as §1
For neural rosette-like cells’ imaging, cells were washed with PBS and subsequently, cells were fixed using 4% paraformaldehyde in PBS. Permeabilization was performed using 0.1% Triton-X in PBS for 10 min at room temperature. Cells were blocked using 10% donkey serum diluted in PBS +0.1% Tween20 for 10 more minutes. Incubation with primary antibody overnight at 4 °C was performed to stain the cells. The cells were washed 3 times with PBS +0.1% Tween20 and incubated with a secondary antibody in PBS for 1 h at room temperature. Cellular nuclei were stained using Hoechst H33342 (CAS# […], Sigma Aldrich in a 1:5000 dilution). Imaging was done using an Operetta CLS (Revvity) instrument. Primary and secondary antibodies’ concentrations are described in Supplementary Table S2.
To quantify PAX6-and NESTIN-positive cells, Hoechst-stained nuclei were selected based on their fluorescent signal above the background. Cells were also excluded if touching the edge of the fields of view. Also, size exclusion was applied to avoid clustered nuclei being counted as single objects. Fluorescence measurements of PAX6 were performed within the defined nuclei and intracellularly for NESTIN. Then, a minimal fluorescence threshold was defined, resulting in the selection of PAX6-positive cells and NESTIN-positive cells. Finally, the percentages of PAX6-and NESTIN-positive cells were calculated using Revvity Harmony™ Software.
The compounds were tested in both the replating and the one-step protocols. Due to the nature of the protocols, teratogenicity prediction of the compounds was performed based on quantification of PAX6 and NESTIN-positive cells at D13 in the replating protocol or on a significant reduction in the biomarker gene expression at D7 and D13, as well as qualitative morphological analysis at D13 in the one-step protocol.

[11] = tested on: hiPSCs trilineage differentiation (cardiomyocytes, hepatocytes, neural rosette-like cells); conditions: human
From the text: as §6, §7, §8, §9

undifferentiated hiPSCs [12] = test: Concentration-range selection and cytotoxicity assessment (AlamarBlue); conditions: lowest concentration that induced a maximum of 20% cytotoxicity in hiPSCs, 7 days
Method: In short, hiPSCs were exposed to 20 consecutive concentrations of the test compounds using 1 mM or the maximum soluble concentration as the top concentration. Test compounds were added to the medium prior to the refreshes at D0 and D3. Cytotoxicity was estimated at D7; upon completion of the experiments, cells were incubated with resazurin solution (0.01 mg/mL in PBS) and measured absorbance (excitation 530 nm and emission 590 nm). Results were normalized against vehicle controls (0.1% v/v DMSO).
All compounds were tested at five consecutive concentrations in two-fold dilution steps. The top concentration was determined as the lowest concentration that induced a maximum of 20% cytotoxicity in the concentration range finding experiments. Compounds were then diluted 2-fold using serial dilutions.
Data acceptance for dose-range finding experiments was based on the response to positive and negative assay controls, and compound solubility and cytotoxicity. […] Concentrations of compound(s) inducing cytotoxicity and therefore reducing cell survival below 80% were excluded from further testing in differentiation assays.
Thus, to determine cytotoxicity of the test compounds, undifferentiated hiPSCs were exposed to 20 consecutive concentrations at 2-fold dilutions for 7 days. The lowest concentration that induced a maximum of 20% cytotoxicity in the concentration range finding experiment was applied as top concentration for the differentiation experiments.

[13] = lineage call (positive/equivocal/negative)

Row | SMILES | Cmax [1] [nM] | ReproTracker results Neural rosette-like cells [3] | ReproTracker results LOAEL [5] | ReproTracker results Cardiomyocyte-like cells [6] | ReproTracker results Hepatocyte-like cells [7] | top concentration for the differentiation experiments (undifferentiated hiPSCs [9]) [µM] | PAX6 protein levels [10] | NESTIN protein levels [10] | NESTIN gene expression at D13 [3] | PAX6 gene expression at D7 [3] | morphology of neural rosette-like cells [3] | further results
1 | COc1ccc([C@@H]2Sc3ccccc3N(CCN(C)C)C(=O)[C@@H]2OC(C)=O)cc1 [Diltiazem] | 60 to 300 | Positive | ≤7.8 µM | – | – | – | – | – | – | – | – | ReproTracker results Hepatocyte-like cells [2]: Positive; LOAEL before inclusion of the neural differentiation readout [4]: 31 µM; LOAEL compared with respective human therapeutic Cmax [5]: higher; ReproTracker results LOAEL ([5]; listed as diltiazem): ≤ 7.8 µM
2 | CO [Methanol] | 98700 | Negative | N.d. up to 1000 µM | Negative | Negative | – | – | – | – | – | – | In vivo classification H (human): NT (presumed)
3 | [CH3][Hg][Cl] [Methylmercury] | 1 to 30 | – | N.d. up to 0.31 µM | – | – | 0.3 | – | – | – | – | – | ReproTracker results Hepatocyte-like cells [2]: Negative; ReproTracker results Cardiomyocyte-like cells [8]: Negative; ReproTracker results Neural rosette-like cells [3, 13]: Negative
4 | Nc1cccc2c1C(=O)N(C1CCC(=O)NC1=O)C2=O (stereo not shown) [Pomalidomide] | 300 to 400 | – | ≤12.5 µM | – | – | – | – | – | – | – | – | In vivo classification H (human): T (presumed); ReproTracker results Cardiomyocyte-like cells [6, 13]: Positive; ReproTracker results Neural rosette-like cells [3, 13]: Positive; ReproTracker results Hepatocyte-like cells [7, 13]: Positive; LOAEL compared with respective human therapeutic Cmax [5]: higher
5 | O=C1NS(=O)(=O)c2ccccc21 [Saccharin] | – | Negative | N.d. up to 250 µM | Negative | Negative | 250 | no effect | no effect | no effect | no effect | no effect | –
6 | C=CC[C@@H]1/C=C(\C)C[C@H](C)C[C@H](OC)[C@H]2O[C@@](O)(C(=O)C(=O)N3CCCC[C@H]3C(=O)O[C@H](/C(C)=C/[C@@H]3CC[C@@H](O)[C@H](OC)C3)[C@H](C)[C@@H](O)CC1=O)[C@H](C)C[C@@H]2OC [Tacrolimus] | 0.6 to 30 | Positive | – | Equivocal | Positive | 7.81 | concentration-dependent decrease | increased | downregulated | downregulation | disrupted | NESTIN localization [10]: affecting; NGN2 gene expression [3]: no significant effect; OTX2 gene expression [3]: no significant effect; PAX6 gene expression at D13 [3]: increasing; SOX1 gene expression [3]: no significant effect; LOAEL compared with respective human therapeutic Cmax [11]: higher; ReproTracker results LOAEL [11]: ≤0.2 µM
7 | CC1=C(/C=C/C(C)=C/C=C/C(C)=C/C(=O)O)C(C)(C)CCC1 [Tretinoin (Retinoic acid)] | 1300 | Positive | – | Positive | Positive | – | significantly decreased | increasing | downregulated | downregulation | disrupted | top concentration for the differentiation experiments (undifferentiated hiPSCs [12]): 5 µM; effect at the highest tested concentration in the replating protocol ([10]; 5 µM): complete cell death; NESTIN localization [10]: disrupted; NESTIN gene expression at D7 [3]: increased; OTX2 gene expression [3]: downregulation; PAX6 gene expression at D13 [3]: downregulation; LOAEL compared with respective human therapeutic Cmax [11]: equal to or below; ReproTracker results LOAEL [11]: ≤0.3 µM
